The text below walks through data of article PMC8071314, “Computational Design and Development of Benzodioxane-Benzamides as Potent Inhibitors of FtsZ by Exploring the Hydrophobic Subpocket” (Antibiotics, 2021).

For data set [1], the system named is MSSA ATCC 29213 and MRSA ATCC 43300. The data set is described as follows: MIC and MBC on methicillin-sensitive and methicillin-resistant S. aureus. It is filed as cell-based, Staphylococcus aureus. The note with it: for fold more potent than inferior (methylenoxy) homolog: MRSA and MSSA, 1 vs VI, 2 vs VII, 3 vs V, 5 vs 4, 8 vs 7; for MIC / MBC: Staphylococcus aureus, MSSA ATCC 29213 and MRSA ATCC 43300; for MIC: lowest dose arresting bacterial growth; for MBC: minimal dose for irreversible block. Here is the method: (§1) We first determined the minimal inhibitory concentration (MIC), i.e., the lowest compound dose (µM) arresting bacterial growth, and the minimal bactericidal concentration (MBC), i.e., the minimal dose (µM) of the compound required for an irreversible block, even after drug removal. Secondly, the derivatives having the most promising activities vs. MRSA were also tested on human MRC-5 cells, calculating their percentages of cytotoxicity by using the MTT assay. Cells were first incubated with each compound for 24 h, then the derivative was removed, and the cells were overlaid with MTT for an additional 3 h. After that time, DMSO replaced the MTT solution, and after 10 min the absorbance was measured at 570 nm. The percentage of cytotoxicity was defined by the formula [100 − (sample OD/untreated cells OD) × 100]. Table 2 reports TD90, defined as the compound concentration (µM) that reduced viability of MRC-5 cells by 90%. Moreover, we reported the therapeutic index (TI), as TD90 and MBC ratio.
The antibacterial activity was tested on both a methicillin-sensitive and a methicillin-resistant S. aureus strain, dissolving all the compounds in dimethyl sulfoxide (DMSO) and using fresh cell cultures at 10^5 cells/mL, in a final volume of 2 mL. The detailed protocol is identical to what was previously reported. Every assay was performed in quadruplicate, and for each series of experiments, both positive (no compounds) and negative (no bacteria) controls were included.

Data set [2] concerns B. subtilis FtsZ rings (strain WM5126, GFP-ZapA). The data set can be described thus: Fluorescence microscopy of GFP-ZapA (Z ring) localization. It is filed as cell-based, Bacillus subtilis. The note with it: 0.4 µg/mL, 1 h exposure. Here is the method:
(yellow arrows in Figure 5 highlight normal sharp bands at the future division sits). On the contrary, in cells treated with compounds 7 and 8, we observed GFP-ZapA forming many (0.4 µg/mL 7) or nearly all (0.8 µg/mL 7 or 0.4 µg/mL 8) foci or focal clusters (white arrows in Figure 5), and abnormal cell elongation is clearly evident. The perturbation of Z rings and cell elongation is similar to the previously described effects of 8j.
For fluorescence microscopy, overnight cultures of WM5126 were grown at […] (after 1:200 dilution of overnight and addition of 0.1% xylose to induce expression of GFP-ZapA) for ~2 h until reaching an OD600 of ~0.2, then treated with no drug or with compounds 7 or 8 diluted in water from stock solutions of 40 mg/mL (8) or 27 mg/mL (7) in DMSO. Those dilutions (40 µg/mL in water) were then added at 1:100 or 1:50 to the cultures and grown for 1 h shaking at 33 °C prior to spotting on a thin layer of 1% agarose in phosphate buffered saline. Cells were imaged with differential interference contrast (DIC) and fluorescence using an Olympus BX100 fitted with a 100 × Plan Apochromat objective (N.A. 1.4) and a GFP filter set (Chroma). Images were acquired with CellSens software (Olympus) and DIC, and fluorescent images of the same field were overlaid using ImageJ [31].
Figure 5 Effect of compounds 7 and 8 on B. subtilis Z rings. B. subtilis strain WM5126 was induced with 0.1% xylose to express GFP-ZapA, then exposed to compounds 7 or 8 for 1 h during exponential growth at 37 °C prior to imaging by DIC and fluorescence. Yellow arrows indicate normal sharp rings at the future division site, while white arrows indicate abnormal foci or clusters. Scale bar, 5 µm.

Data set [3] concerns B. subtilis strain WM5126. The data set is described as follows: Spot viability assay on LB plates. The class given is cell-based. The conditions noted are these: Bacillus subtilis, spotted on LB plates with 0, 0.03, 0.06, 0.1 or 1 µg/mL compound. The procedure:
The promising properties of these new compounds prompted us to test them on B. subtilis, a model Gram-positive species used previously in evaluating other benzamides, such as 8j, the benzothiazole derivative of PC190723 [28]. We chose derivatives 1, 5, and 8, which had the lowest MICs on S. aureus and because they were representative of different substituents on the benzodioxane scaffold. B. subtilis strain WM5126 was grown until early log phase, and then 1 × and 10 × dilutions of the culture were spotted onto LB plates containing 0, 0.03, 0.06, 0.1, or 1 µg/mL final concentration of the compounds.
The two B. subtilis strains used were WM3612 (JH642 amyE::Pxyl-gfp-gp56), described in Bhambani et al., and WM5126 (JH642 amyE::Pxyl-gfp-zapA), which is the same as strain FG347 [29]. For spot viability assays on plates, compounds were diluted from DMSO stocks into molten LB agar as described above and mixed well before solidifying. WM3612 cultures were grown to early exponential phase in LB broth at 37 °C, then spotted directly or after 1:10 dilution into LB onto LB plates containing various concentrations of compounds. After allowing spots to air dry, plates were then incubated overnight at 34 °C and photographed.

Data set [4] relates to MRC-5 cells. The data set can be described thus: MTT cytotoxicity assay on MRC-5 cells. It is filed as cell-based, human. The conditions noted are these: concentration reducing viability of MRC-5 cells by 90%, 24 h incubation. The procedure: as §1
Compounds showing an antibacterial activity at a concentration lower than 10 μg/mL were serially diluted in DMEM and tested for cytotoxicity on MRC-5 cells by the MTT assay (Sigma, St Louis, MO, USA). Protocol was the same previously reported.
In general terms: Formazan colour is commonly taken as a measure of viable cells.

The test system of data set [5] is MDRSA 12.1. The data set can be described thus: MIC on multidrug resistant clinical S. aureus strain MDRSA 12.1 (EUCAST/CLSI). The class given is cell-based, Staphylococcus aureus. The conditions noted are these: Staphylococcus aureus; MDRSA 12.1. The procedure: (§2) We tested 1–8 for their antimicrobial activity on different S. aureus strains (Table 2).
(§3) The antibacterial activities on MDRSA 11.7 and MDRSA 12.1 were performed following the European Committee on Antimicrobial Susceptibility Testing (EUCAST) recommendations and Clinical and Laboratory Standards Institute (CLSI) guidelines, as detailed before. Tetracycline was used as a positive control on every assay plate.

Data set [6] has as its system MDRSA 11.7. The data set is described as follows: MIC on multidrug resistant clinical S. aureus strain MDRSA 11.7 (EUCAST/CLSI). The class given is cell-based. The note with it: Staphylococcus aureus. The procedure:
as §2, §3

For data set [7], the system named is MSSA ATCC29213. On the set-up: method as in PMID 25462242, PMID 27191617, PMID 31750973, PMID 28586174, PMID 32260339. The conditions noted are these: Figure 1; cited from earlier work.

Values after ≈ are worked out from the molar mass of the structure shown.

In the case of `NC(=O)c1c(F)ccc(OCCC2COc3cc4c(cc3O2)CCCC4)c1F` (stereo not shown) [Compound 8, 3-[2-(2,3,6,7,8,9-hexahydronaphtho[2,3-b][1,4]dioxin-2-yl)ethoxy]-2,6-difluorobenzamide], the melting point amounted to 166.5 °C. Further, in data set [1], the “fold more potent than inferior (methylenoxy) homolog” value amounted to 50 fold, the MIC was determined as 0.25 µM (≈ 0.0973 µg/mL) and the MBC is 0.25 µM (≈ 0.0973 µg/mL). In addition, in data set [2], the “GFP-ZapA forming foci or focal clusters” value was “nearly all”. For the same compound, the MIC in data set [3] was below 0.1 µg/mL. Moreover, the TD90 in data set [4] worked out at 2054 µM. Inhibition of growth in data set [5] (MIC) required 0.3 µM (≈ 0.117 µg/mL). The same compound displayed an MIC in data set [6] of 0.3 µM (≈ 0.117 µg/mL).

As to `NC(=O)c1c(F)ccc(OCC2COc3cc4ccccc4cc3O2)c1F` (stereo not shown) [Compound 4, 3-[(2,3-dihydronaphtho[2,3-b][1,4]dioxin-2-yl)methoxy]-2,6-difluorobenzamide], the MIC was 7.1 µM (≈ 2.64 µg/mL) in data set [1], 11.4 µM (≈ 4.23 µg/mL) in data set [5] and 11.4 µM (≈ 4.23 µg/mL) in data set [6]. The compound further registered an MBC in data set [1] of 7.1 µM (≈ 2.64 µg/mL). For the same compound, the TD90 in data set [4] was above 2276 µM.

For the compound `NC(=O)c1c(F)ccc(OCC2COc3ccccc3O2)c1F` (stereo not shown) [I, reference compound], the MIC was 15.6 µM (≈ 5.01 µg/mL) in data set [1], 15.6 µM (≈ 5.01 µg/mL) in data set [7], 24.9 µM (≈ 8 µg/mL) in data set [5] and 49.8 µM (≈ 16 µg/mL) in data set [6]. This compound gave an MBC in data set [1] of 249 µM (≈ 80 µg/mL). This compound showed a TD90 in data set [4] of 49.8 µM.

As for `NC(=O)c1c(F)ccc(OCc2nc3cc(Cl)ccc3s2)c1F` [Compound 8j], the MIC in data set [7] was 0.70 µM (≈ 0.248 µg/mL).

In the case of `CSc1nc(-c2ccc3c(c2)OC(COc2ccc(F)c(C(N)=O)c2F)CO3)no1` (stereo not shown) [V, reference compound], the MIC was 1.4 µM (≈ 0.61 µg/mL) in data set [1], 1.4 µM (≈ 0.61 µg/mL) in data set [7], below 2.3 µM in data set [5] and below 2.3 µM in data set [6]. In data set [1], this compound had an MBC of 1.4 µM (≈ 0.61 µg/mL). Moreover, the TD90 in data set [4] was found to be 1700 µM.

With `NC(=O)c1c(F)ccc(OCc2nc3cc(Cl)cnc3s2)c1F` [PC190723], in data set [7], the MIC is 2.8 µM (≈ 0.996 µg/mL).

As to `NC(=O)c1c(F)ccc(OCCCOc2ccc3ccccc3c2)c1F` [Compound 6], the MIC in data set [1] was determined as 14 µM (≈ 5 µg/mL); in data set [5] it was 11.2 µM (≈ 4 µg/mL); in data set [6] it was 11.2 µM (≈ 4 µg/mL). Further, in data set [1], the MBC was 14 µM (≈ 5 µg/mL). Also, the TD90 in data set [4] was above 2238 µM.

As to `NC(=O)c1c(F)ccc(OCCC2COc3cc4ccccc4cc3O2)c1F` (stereo not shown) [Compound 5, 3-[2-(2,3-dihydronaphtho[2,3-b][1,4]dioxin-2-yl)ethoxy]-2,6-difluorobenzamide], the “fold more potent than inferior (methylenoxy) homolog” value in data set [1] is on record as 12 fold. Besides, the MIC in data set [1] is 0.6 µM (≈ 0.231 µg/mL); in data set [3], below 0.1 µg/mL; in data set [5], 0.6 µM (≈ 0.231 µg/mL); in data set [6], 1.3 µM (≈ 0.501 µg/mL). Also, the MBC in data set [1] was found to be 0.6 µM (≈ 0.231 µg/mL). This compound came in with a TD90 in data set [4] of 233 µM.

One may read the MIC as the smallest concentration in the dilution series that meets the test's criterion for growth inhibition. One may read the MBC as the smallest concentration meeting the test's criterion for killing. The low end stands for greater bactericidal potency, the high end for weaker bactericidal potency. As usually defined, the melting point is the temperature, or range, at which the solid turns liquid.
